Laboratory results: ChEMBL document CHEMBL5620426, “Discovery of 3-(1H-benzo[d]imidazole-2-yl)-1H-pyrazol-4 -amine derivatives as novel and potent syk inhibitors for the treatment of hematological malignancies” (Eur J Med Chem, 2023)
pIC50: −log10 of the molar value.

Tests used:
[1] = molecular target: T1, Tyrosine-protein kinase SYK (Homo sapiens, UniProt P43405); assay: Inhibition of Syk (unknown origin) assessed as enzyme activity at 2 uM preincubated for 20 mins followed by 33P-gamma-ATP measured after 120 mins by HotSpot assay relative to control; set-up: scale not given: the % may be the effect or the level left; conditions: time 140.0 min
[2] = molecular target: T1, Tyrosine-protein kinase SYK; assay: Inhibition of Syk (unknown origin) preincubated for 20 mins followed by 33P-gamma-ATP measured after 120 mins by HotSpot assay
Ramos = assay: Inhibition of […] in serum-starved human Ramos cells incubated for 1 hr followed by anti-human IgM F(ab)2 measured after 5 mins; format: functional, cell-based
[3] = Metabolic stability in human liver microsomes assessed as intrinsic clearance at […] incubated for 60 mins in presence of NADPH by LC-MS/MS analysis; format: ADME, Microsome; conditions: read-out: CLH
[4] = Metabolic stability in human liver microsomes assessed as half life at […] incubated for 60 mins in presence of NADPH by LC-MS/MS analysis; format: ADME, Microsome
MV4-11 [5] = assay: Inhibition of cell viability in human MV4-11 cells incubated for 72 hrs by Cell Titer Glo assay; format: functional, cell-based; conditions: MV4-11, 72 h
MV4-11 [6] = assay: Antitumor activity against human MV4-11 cells xenografted in nude BALB/c mouse assessed as tumor growth inhibition at 1 mg/kg, iv qd for 21 days administered consecutively relative to control; format: functional; conditions: MV4-11, 504 h, time 21 day, read-out: TGI
[7] = Volume of distribution at steady state in fasted Sprague-Dawley rat at 1 mg/kg, iv measured for 24 hrs by LC-MS/MS analysis; format: ADME, organism-based; conditions: in vivo, read-out: Vdss
[8] = Half life in fasted Sprague-Dawley rat at 10 mg/kg, po measured for 24 hrs by LC-MS/MS analysis; format: ADME, organism-based; conditions: in vivo
DOHH-2 = assay: Antiproliferative activity against human DOHH-2 cells assessed as inhibition of cell viability incubated for 72 hrs by Cell Titer Glo assay; format: functional, cell-based; conditions: DOHH-2, 72 h
[9] = Half life in fasted Sprague-Dawley rat at 1 mg/kg, iv measured for 24 hrs by LC-MS/MS analysis; format: ADME, organism-based; conditions: in vivo
SU-DHL-6 = assay: Antiproliferative activity against human SU-DHL-6 cells assessed as inhibition of cell viability incubated for 72 hrs by Cell Titer Glo assay; format: functional, cell-based; conditions: SU-DHL-6, 72 h
[10] = Toxicity in nude BALB/c mouse xenografted with human MV4-11 cells assessed as systemic cytotoxicity at 1 mg/kg, iv qd for 21 days administered consecutively; format: organism-based; conditions: in vivo, 504 h, time 21 day
[11] = Tmax in fasted Sprague-Dawley rat at 10 mg/kg, po measured for 24 hrs by LC-MS/MS analysis; format: ADME, organism-based; conditions: in vivo
[12] = Clearance in fasted Sprague-Dawley rat at 1 mg/kg, iv measured for 24 hrs by LC-MS/MS analysis; format: ADME, organism-based; conditions: in vivo
[13] = AUC in fasted Sprague-Dawley rat at 10 mg/kg, po measured for 24 hrs by LC-MS/MS analysis; format: ADME, organism-based; conditions: in vivo
[14] = molecular target: T1, Tyrosine-protein kinase SYK; assay: Inhibition of SYK phosphorylation in human Ramos cells incubated for 2 hrs by Western blot analysis; format: cell-based; conditions: dose <= 500.0 nM
[15] = molecular target: T1, Tyrosine-protein kinase SYK; assay: Inhibition of SYK in human Ramos cells assessed as decrease in PLC-gamma-2 phosphorylation incubated for 2 hrs by Western blot analysis; format: cell-based; conditions: dose <= 500.0 nM
[16] = Toxicity in nude BALB/c mouse xenografted with human MV4-11 cells assessed as body weight loss at 1 mg/kg, iv qd for 21 days administered consecutively; format: organism-based; conditions: in vivo, 504 h, time 21 day
TMD8 = assay: Antiproliferative activity against human TMD8 cells assessed as inhibition of cell viability incubated for 72 hrs by Cell Titer Glo assay; format: functional, cell-based; conditions: TMD8, 72 h
[17] = C0 in fasted Sprague-Dawley rat at 1 mg/kg, iv measured for 24 hrs by LC-MS/MS analysis; format: ADME, organism-based; conditions: in vivo
Rec1 = assay: Antiproliferative activity against human REC1 cells assessed as inhibition of cell viability incubated for 72 hrs by Cell Titer Glo assay; format: functional, cell-based; conditions: Rec1, 72 h
[18] = Toxicity in nude BALB/c mouse xenografted with human MV4-11 cells assessed as animal mortality at 1 mg/kg, iv qd for 21 days administered consecutively; format: organism-based; conditions: in vivo, 504 h, time 21 day
[19] = AUC in fasted Sprague-Dawley rat at 1 mg/kg, iv measured for 24 hrs by LC-MS/MS analysis; format: ADME, organism-based; conditions: in vivo
Daudi = assay: Antiproliferative activity against human Daudi cells assessed as inhibition of cell viability incubated for 72 hrs by Cell Titer Glo assay; format: functional, cell-based
[20] = Cmax in fasted Sprague-Dawley rat at 10 mg/kg, po measured for 24 hrs by LC-MS/MS analysis; format: ADME, organism-based; conditions: in vivo
[21] = Oral bioavailability in fasted Sprague-Dawley rat at 10 mg/kg measured for 24 hrs by LC-MS/MS analysis; format: ADME, organism-based; conditions: in vivo

With `c1ccc2[nH]c(-c3n[nH]cc3Nc3ccnc(NCC4CCCCC4)n3)nc2c1` the Activity [1] was 47.9%.
Compound `Cc1ccc(CNc2c[nH]nc2-c2nc3ccccc3[nH]2)o1` has an Activity [1] of 60.5%.
With `c1ccc2[nH]c(-c3n[nH]cc3NCc3ccncc3)nc2c1` the pIC50 [2] was 5.75.
Compound `Cc1cc2nc(-c3n[nH]cc3Nc3ncnc4c3ccn4C)[nH]c2cc1C` has a pIC50 [2] of 7.67.
With `CN(C)c1cccc2[nH]c(-c3n[nH]cc3Nc3ncnc4[nH]ccc34)nc12` the pIC50 (Ramos) was 7.73, the microsomal CLint [3] was 52.2 µL/min/mg and the half-life [4] was 33.3 min. The pIC50 (MV4-11 [5]) was 7.69 and the pIC50 [2] was 7.95.
In the case of `COCCOc1ccc2[nH]c(-c3n[nH]cc3Nc3ncnc4[nH]ccc34)nc2c1`, the pIC50 (Ramos) was 7.10, the pIC50 (MV4-11 [5]) was 7.56 and the pIC50 [2] was 8.26.
Work on `Fc1ccc2[nH]c(-c3n[nH]cc3Nc3ncnc4[nH]ccc34)nc2c1` yielded a pIC50 [2] of 7.47.
In the case of `Cc1ccc2[nH]c(-c3n[nH]cc3Nc3ncnc4[nH]ccc34)nc2c1`, the pIC50 [2] was 8.03.
Compound `Clc1cc(Nc2c[nH]nc2-c2nc3ccccc3[nH]2)nc(N2CCOCC2)n1` has an Activity [1] of 91.2%.
With `CCNc1c[nH]nc1-c1nc2ccccc2[nH]1` the pIC50 [2] was 4.80.
In the case of `CCN(CC)CCNc1nccc(Nc2c[nH]nc2-c2nc3ccccc3[nH]2)n1`, the Activity [1] was 40.5%.
Work on `CN(C)c1ccc2[nH]c(-c3n[nH]cc3Nc3ncnc4[nH]ccc34)nc2c1` yielded a pIC50 (Ramos) of 7.21, a microsomal CLint [3] of 30.8 µL/min/mg and a half-life [4] of 44.9 min. For the same compound, the pIC50 (MV4-11 [5]) was 7.71 and the pIC50 [2] was 8.57.
Compound `c1ccc2[nH]c(-c3n[nH]cc3Nc3ncnc4ccccc34)nc2c1` has a pIC50 [2] of 6.97.
`O=C(Nc1nccc(Nc2c[nH]nc2-c2nc3ccccc3[nH]2)n1)c1ccccc1` gave a pIC50 [2] of 6.28.
`Cc1cc2nc(-c3n[nH]cc3Nc3ncnc4[nH]ccc34)[nH]c2cc1C` showed a pIC50 (Ramos) of 7.32, a microsomal CLint [3] of 70.4 µL/min/mg and a half-life [4] of 19.7 min. The pIC50 (MV4-11 [5]) was 7.53 and the pIC50 [2] was 8.44.
`CN(C)CCN(C)c1ccc2[nH]c(-c3n[nH]cc3Nc3ncnc4[nH]ccc34)nc2c1` gave a pIC50 (Ramos) of 7.44, a microsomal CLint [3] of 15.9 µL/min/mg and a half-life [4] of 87.3 min. The pIC50 (MV4-11 [5]) was 8.03 and the pIC50 [2] was 8.49.
In the case of `c1cc(N2CCCC2)c2nc(-c3n[nH]cc3Nc3ncnc4[nH]ccc34)[nH]c2c1`, the pIC50 (Ramos) was 7.57, the microsomal CLint [3] was 78.1 µL/min/mg and the half-life [4] was 44.4 min. For the same compound, the pIC50 (MV4-11 [5]) was 7.08 and the pIC50 [2] was 7.84.
`Cc1nc(Cl)cc(Nc2c[nH]nc2-c2nc3ccccc3[nH]2)n1` gave a pIC50 [2] of 5.91.
In the case of `CC(C)N1CCN(c2ccc3[nH]c(-c4n[nH]cc4Nc4ncnc5[nH]ccc45)nc3c2)CC1`, the inhibition in vivo at 1 mg/kg (MV4-11 [6]) was 99.3%, the Vd [7] was 8.93 L/kg and the half-life [8] was 227 min. It also gave a pIC50 (DOHH-2) of 8.06, a half-life [9] of 384 min and a pIC50 (SU-DHL-6) of 6.67. The Activity [10] was “Non-Toxic”, the Tmax [11] was 50 min and the clearance [12] was 33.3 mL/min/kg. The AUC at 24 h [13] was 78.8 ng·h/mL, the inhibition [14] was “Dose-Dependent Effect” and the inhibition [15] was “Dose-Dependent Effect”. The Activity [16] was “Non-Toxic”, the pIC50 (Ramos) was 7.74 and the pIC50 (TMD8) was 7.96. The microsomal CLint [3] was 15.4 µL/min/mg, the half-life [4] was 113 min and the C0 at 24 h [17] was 1240 ng/mL. For the same compound, the pIC50 (Rec1) was 7.46, the Activity [18] was “Non-Toxic” and the AUC at 24 h [19] was 514 ng·h/mL. The pIC50 (Daudi) was 6.14, the pIC50 (MV4-11 [5]) was 8.82 and the Cmax [20] was 18.1 ng/mL. It also gave a bioavailability [21] of 1.5% and a pIC50 [2] of 9.28.
Compound `Clc1nccc(Nc2c[nH]nc2-c2nc3ccccc3[nH]2)n1` has a pIC50 [2] of 6.62.
With `Nc1cccc(CNc2c[nH]nc2-c2nc3ccccc3[nH]2)c1` the Activity [1] was 52.6%.
Work on `c1cc(N2CCCCC2)c2nc(-c3n[nH]cc3Nc3ncnc4[nH]ccc34)[nH]c2c1` yielded a pIC50 [2] of 7.24.
